Data on three compounds can be found in paper PMC5618791, “Double quick, double click reversible peptide “stapling”” (Chemical Science, 2017).

The structures appear in SMILES notation. Starred links: 1 amine or outer side, 2 acyl side, 3 side chain; linkers in the order of their positions; H or OH if unused. Positions of bridges follow the written chain, without caps; N, C: chain ends. Non-standard residues stand in square brackets, D forms with d. Residues, ends and D or L forms follow the SMILES beside them. Maleimide(3,4-diyl) = O=C1NC(=O)C([*:2])=C1[*:1]; Nle = CCCC[C@H](N)C(=O)O

The nature of data set [1]: Trypsin proteolysis followed by LC-MS. In kind it is in vitro ADME. The conditions noted are these: trypsin from bovine pancreas (isolated protease), pH 7.5, 1:10000 enzyme/substrate ratio, 50 mM phosphate buffer, 200 mM NaCl, pH 7.50, peptide 200 μM stock, 5% DMSO, LC-MS of intact peptide at 0, 5, 12, 21, 45, 90 min, read-out: t1/2, trypsin proteolysis. As to the method:
Proteolysis studies on BID peptides
Trypsin, modified sequencing grade from bovine pancreas (lyophilized powder, MW = 24 kDa, ≥ 4 units/mg protein) was purchased from Sigma-Aldrich and used without further purification. BID peptides (200 µM stock in PBS buffer pH 7.50, 5% DMSO) were treated with Trypsin (0.02 µM stock solutions in PBS buffer pH 7.50) in a 1:10000 enzyme/substrate ratio.
The degradation was followed with LCMS (Aeris Peptide LC-Column XB-C18 2.6 µm, 100x2.1 mm, injection volume: 5 µL, acetonitrile/water (0.1% formic acid) 5-95% gradient).
The degradation pattern of each peptide (figure A) could be identified by mass spectrometry.
The cleavage sites are marked by dotted lines and the subsequent fragment masses, shown in squares, are allocated to a number which is reported on the LCMS graph (graph B).
The LCMS traces (graph B) of each peptide incubated with Trypsin were recorded at the following successive times: 0, 5, 12, 21, 45 and 90 min.
(graph C) was integrated to extract kinetic values.

The target of data set [2] is FITC-BID/Mcl-1 interaction (Homo sapiens, UniProt Q07820). Kind of data set: Fluorescence anisotropy competition assay, FITC-BID/Mcl-1. Particulars: 25 nM tracer, 150 nM protein, 50 mM Tris, 150 mM NaCl, 0.61% Triton X-100, pH 7.40; 1 h, room temperature; triplicate; read-out: IC50, inhibition of the FITC-BID/Mcl-1 interaction. In kind it is binding. How it is done:
fluorescein-labelled FITC-Ahx-BID (80-102) was synthesised and purified as stated […]
(§1) Fluorescence anisotropy assays were performed in 384-well black plates (Greiner Bio-one).
(§2) Each experiment was run in triplicate and fluorescence anisotropy was measured using a Perkin Elmer EnVisionTM 2103 MultiLabel plate reader. […]
- 50 mM phosphate buffer at pH 7.5, containing 200 mM NaCl and 0.05% of tween for […]
(§3) 20 µL of assay buffer were first added to each well.
(§4) For each competition assay, 20 µL of a solution of α-helix mimetics (1 mM in 90:10 (v/v) assay buffer: DMSO) were added to the first column. The solution was well mixed and 20 µL were taken out and added to the next column and so on. This operation consisted on serial dilution of the peptides across the plate (24-points, 1/2 serial dilution). The tracer peptide and the targeted protein were added to each well to give a final concentration of 25 nM and […]
(§5) For control wells in both assays, the tracer peptide was replaced with an identical volume of assay buffer. […] Plates were read after 1 h of incubation […]
(§6) The average anisotropy (across three experimental replicates) and the standard deviation of these values were then calculated and fit to a sigmoidal logistic model (Equation 3) using OriginPro 9.0 which provided the IC50 and error values.
(In general: Polarisation of emitted light reports the rotation of a fluorescent probe.)

The target of data set [3] is BODIPY-BAK/Bcl-xL interaction (Homo sapiens, UniProt Q07817). Kind of data set: Fluorescence anisotropy competition assay, BODIPY-BAK/Bcl-xL. The conditions noted are these: 25 nM tracer, 150 nM protein, 50 mM phosphate, 200 mM NaCl, 0.02 mg mL-1 BSA, pH 7.50; 1 h, room temperature; triplicate; read-out: IC50, inhibition of the BODIPY-BAK/Bcl-xL interaction. It counts as binding. How it is done:
as §1, §2
- 50 mM phosphate buffer at pH 7.5, containing 200 mM NaCl and 0.02 mg.mL-1 bovine serum albumin (BSA) for BODIPY-BAK/Bcl-xL. […]
as §3, §4
For each direct titration assay, 20 µL of a solution of the protein (60 µM in assay buffer) were added to the first column. […]
as §5, §6

Data set [4] in a line: Circular dichroism, % helicity. In kind it is physicochemical. The conditions noted are these: CD, peptide 10-20 μM, calculated from MRE at 222 nm. As to the method: Samples were prepared in two different solvent systems (30% TFE:H2O, 30% CH3CN:water) to concentrations between 10 - 20 μM (Figure S 23). Considering the high number of hydrophobic residues in BID and S peptides, organic co-solvents were used to ensure good solubility and avoid aggregation at concentrations high enough for CD analyses. DMSO stocks of peptides were not used for CD due to its high absorbance below 230 nm.
The raw circular dichroism data obtained for the peptides was processed by the subtraction of the solvent signal and converted into a mean residue ellipticity:
Where = molar ellipticity[θ]MRE per residue, θ = circular dichroism at a given wavelength, c = molar concentration, l = path length in cm, R = number of residues in the peptide sequence.
Calculation of % helicity was performed by the following equation:[4]
Where: θH = Theoretical MRE for 100% helicity at 222 nm, θ0 = Theoretical MRE for 100% helicity at 222 nm at 0 °C = –44000, (∂θ/∂T) = temperature dependence of infinite helix = +250, T = temperature in °C, x = 3, Nr = number of residues in the peptide.
In both solvent systems, it is noteworthy that STA-peptides are more helical than RED-peptides or WT-peptides; with the exception of constrained S-Cys-peptides. The use of TFE as co-solvent in water enhances the α-helicity of both series of peptides compared to the use of acetonitrile in water. […]
thus bioactive) conformation. The S peptides show a low helix propensity which is consistent […]
Figure S 23: CD spectra A. and B. in 30% TFE:H 2O; C. and D. in 30% CH3CN:H 2O.
Table 1: Percentage of helicity in the three solvent systems […]
(also on this page, place not known: Molar residue ellipticity (deg.cm 2 .dmol -1 ) Molar residue ellipticity (deg.cm 2 .dmol -1 ) Molar residue ellipticity (deg.cm 2 .dmol -1 ) Molar residue ellipticity (deg.cm 2 .dmol -1 ) TFE:H2O; CH3CN:H2O.)

The next data set concerns the target T1, RNase S protein (Bos taurus, UniProt P61823).
T1 construct: S protein 21-124; made in house; host or cells: proteolytic fragment of RNase A (subtilisin digestion)
T1 sequence (P61823 47-150): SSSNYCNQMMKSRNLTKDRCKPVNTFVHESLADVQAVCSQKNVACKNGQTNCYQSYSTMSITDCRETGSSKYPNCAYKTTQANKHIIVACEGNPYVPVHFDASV
Kind of data set: RNA degradation assay, restoration of S protein activity. In kind it is biochemical. The conditions noted are these: EtBr-labelled RNA, S peptides 0.1-2 μM, 50 mM Tris, 100 mM NaCl, pH 7.50, 60 min, room temperature, fluorescence, triplicate. As to the method: Fig. 5 Biophysical and bioactivity analyses of WT-S and S derived peptides 3–4a,c. (a) Circular dichroism spectra recorded in water (30% TFE); (b) RNA degradation assay showing the restoration of S protein activity. S protein was used as a negative control, and RNase A as a positive control. (50 mM Tris, 100 mM NaCl, pH 7.50).
RNase A (10 mg) in Hepes (600 µL, 100 mM; pH = 8.0) was digested by subtilisin (5 mg/mL, 10 µL) for 4 hrs at 0 °C. After which, the buffer was acidified with a solution of HCl (1 M) to reach pH = 3. The acidic solution was stirred for 1 h at 2 °C. The reaction was monitored by HPLC using the Jupiter µ Proteo 90 A analytical column using a gradient (0-60% over 30 min). […]
RNA degradation assays were performed in 96-well black plates (Greiner Bio-one). Each experiment was run in triplicate and the fluorescence was measured using a Perkin Elmer EnVisionTM 2103 MultiLabel plate reader, with an excitation and emission at 510 nm and at […]
The buffer used in this enzymatic assay was Tris buffer (50 mM of Tris, 100 mM of NaCl, pH = 7.5). The adequate quantity of buffer was first added to each well to reach a total volume of 200 µL (150 µL for controls, 149 µL for 0.1 µM of S peptides, 148 µL for 0.2 µM of S peptides, 145 µL for 0.5 µM of S peptides, 140 µL for 1 µM of S peptides, 130 µL for 2 µM of S peptides). […]

Chain of BODIPY-BAK/Bcl-xL interaction (Q07817 whole entry): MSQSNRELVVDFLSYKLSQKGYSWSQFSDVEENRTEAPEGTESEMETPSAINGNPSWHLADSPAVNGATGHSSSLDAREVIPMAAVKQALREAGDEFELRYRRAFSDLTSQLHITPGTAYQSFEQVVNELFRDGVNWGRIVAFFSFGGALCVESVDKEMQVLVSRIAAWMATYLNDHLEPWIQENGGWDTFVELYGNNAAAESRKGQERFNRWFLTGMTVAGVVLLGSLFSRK
Chain of FITC-BID/Mcl-1 interaction (Q07820 172-327 limits assumed): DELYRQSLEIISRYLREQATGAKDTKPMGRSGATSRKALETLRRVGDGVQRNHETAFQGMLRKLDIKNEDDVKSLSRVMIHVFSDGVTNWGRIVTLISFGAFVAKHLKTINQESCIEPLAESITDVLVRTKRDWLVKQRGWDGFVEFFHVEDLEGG

Regarding `CCCC[C@H](NC(=O)[C@H](CS)NC(=O)[C@H](CC(=O)O)NC(=O)CNC(=O)[C@@H](NC(=O)[C@H](CS)NC(=O)[C@H](C)NC(=O)[C@H](CC(C)C)NC(=O)[C@H](Cc1c[nH]cn1)NC(=O)[C@H](CCCNC(=N)N)NC(=O)[C@H](C)NC(=O)[C@@H](NC(=O)[C@H](CC(N)=O)NC(=O)[C@H](CCCNC(=N)N)NC(=O)[C@@H](NC(=O)[C@@H](NC(=O)[C@H](CC(=O)O)NC(=O)[C@H](CCC(=O)O)NC(C)=O)[C@@H](C)CC)[C@@H](C)CC)[C@@H](C)CC)C(C)C)C(=O)N[C@@H](CC(=O)O)C(=O)N[C@@H](CCCNC(=N)N)C(=O)N[C@@H](CO)C(=O)N[C@H](C(=O)N[C@@H](Cc1c[nH]c2ccccc12)C(N)=O)[C@@H](C)CC` [1a] (Ac-EDIIRNIARHLACVGDC[Nle]DRSIW-NH2), the half-life in data set [1] came out at 22 min. The IC50 was determined as 23.4 µM in data set [2] and 70.9 µM in data set [3].

Regarding `CSCC[C@H](NC(=O)[C@H](Cc1c[nH]cn1)NC(=O)[C@H](CCC(N)=O)NC(=O)[C@@H]1CSSC[C@H](NC(=O)[C@H](C)NC(=O)[C@H](C)NC(=O)[C@@H](NC(=O)[C@H](CCC(=O)O)NC(=O)[C@H](CCCCN)NC(C)=O)[C@@H](C)O)C(=O)N[C@@H](CCCCN)C(=O)N[C@@H](Cc2ccccc2)C(=O)N[C@@H](CCC(=O)O)C(=O)N1)C(=O)N[C@@H](CC(=O)O)C(=O)N[C@@H](CO)C(N)=O` [2c] (Ac-KETAACKFECQHMDS-NH2; disulfide 6-10), the “Percentage of helicity, 30% CH3CN:H2O” value in data set [4] (30% CH3CN:H2O) is on record as 0%. Also, the “Percentage of helicity, 30% TFE:H2O” value in data set [4] (30% TFE:H2O) is 0%. At RNase S protein, the “Restoration of S protein (RNase) enzymatic activity” value was “failure to restore S protein activity”.

As for `CCCC[C@H](NC(=O)[C@@H]1CSC2=C(SC[C@H](NC(=O)[C@H](C)NC(=O)[C@H](CC(C)C)NC(=O)[C@H](Cc3c[nH]cn3)NC(=O)[C@H](CCCNC(=N)N)NC(=O)[C@H](C)NC(=O)[C@@H](NC(=O)[C@H](CC(N)=O)NC(=O)[C@H](CCCNC(=N)N)NC(=O)[C@@H](NC(=O)[C@@H](NC(=O)[C@H](CC(=O)O)NC(=O)[C@H](CCC(=O)O)NC(C)=O)[C@@H](C)CC)[C@@H](C)CC)[C@@H](C)CC)C(=O)N[C@@H](C(C)C)C(=O)NCC(=O)N[C@@H](CC(=O)O)C(=O)N1)C(=O)NC2=O)C(=O)N[C@@H](CC(=O)O)C(=O)N[C@@H](CCCNC(=N)N)C(=O)N[C@@H](CO)C(=O)N[C@H](C(=O)N[C@@H](Cc1c[nH]c2ccccc12)C(N)=O)[C@@H](C)CC` [3a] (Ac-EDIIRNIARHLACVGDC[Nle]DRSIW-NH2; linker 13-17 via Maleimide(3,4-diyl)), the half-life in data set [1] is 75 min. Besides, the IC50 amounted to 16.6 µM in data set [2] and 19.4 µM in data set [3].
